The values below come from publication PMC6726392 (ACS chemical neuroscience, 2019).

The structures appear in SMILES notation. pEC50, pKi: −log10 of the molar value.

The target of assay [1] is T1, kappa opioid receptor (KOR); human KOR (Homo sapiens, UniProt P41145). Put plainly: [3H]diprenorphine competitive displacement, membranes. Type of assay: binding.
Assay [2] deals with delta opioid receptor (DOR); rat DOR (Rattus norvegicus, UniProt P33533). The assay is described as above. The class given is binding.
For assay [3], the target named is T1, kappa opioid receptor (KOR); human KOR. Put plainly: […]GTPγS binding stimulation, membranes. Type of assay: biochemical.
For assay [4], the target named is mu opioid receptor (MOR); rat MOR (Rattus norvegicus, UniProt P33535). Put plainly: [3H]diprenorphine competitive displacement, membranes. The class given is binding.

Take `Cc1cc(O)cc(C)c1C[C@H](N)C(=O)N1CCc2cccc(Cc3ccccc3)c2C1` [4d, 8-Bn Dmt-Tiq analogue 4d]: the pKi (in general, the Ki on a negative log10 scale, so that one unit is a factor of ten) in assay [1] was 7.59; in assay [2] it was 6.73; in assay [4] it was 8.39. In addition, the pEC50 (in general, the negative decadic logarithm of the EC50, by convention in mol/L) in assay [3] was 6.50.

Consider `Cc1cc(O)cc(C)c1C[C@H](N)C(=O)N1CCc2c(Cc3ccccc3)cccc2C1` [4a, 5-Bn Dmt-Tiq analogue 4a], for which the results for the pKi in assay [1], in assay [2] and in assay [4] were 6.95, 8.48 and 7.77, respectively.

On to `Cc1cc(O)cc(C)c1C[C@H](N)C(=O)N1CCc2ccc(Cc3ccccc3)cc2C1` [4c, 7-Bn Dmt-Tiq analogue 4c], for which the negative-log Ki (pKi) in assay [1] is 8.41; in assay [2] it was 8.21; in assay [4], 8.57. In assay [3], the pEC50 is 7.48.

Regarding `Cc1cc(O)cc(C)c1C[C@H](N)C(=O)N1CCc2cc(Cc3ccccc3)ccc2C1` [4b, 6-Bn Dmt-Tiq analogue 4b], the pKi in assay [1] was 7.42; in assay [2], 8.37; in assay [4], 8.00.
